Source: US10975056B2 (GlaxoSmithKline Intellectual Property Development Limited, priority 2016, dated 2021)
Where “and” joins values, the source holds several entries; their conditions need not be identical. Equal entries are not always repeated. Structures can show the parent of a compound that is named as a salt. Where two headings read alike, the source gives them in different places.

What was measured:
[1] = system: erythroid progenitor cells (EPCs); test: Fetal hemoglobin (HbF) ELISA in day 7 erythroid progenitor cells; format: cell-based, human; settings: Homo sapiens, Erythroid progenitor cell, HbF ELISA, day 7 EPCs, 5 days; read-out: EPC ELISA (pEC50 category) (converted)
Protocol: Day 7 EPCs were cultured in duplicate plates with serially diluted Compound A for 5 days at 37° C. Wells were then analyzed for either induction of fetal hemoglobin (HbF,HbF ELISA) or cell growth (Cell Titer-Glo). In both cases, signal was normalized to vehicle-control treated cells.
Culture, Expansion, and Characterization of Day 7 Erythroid Progenitor Cells (EPC)s
All donors provided written informed consent for use of their samples, and the collection and use of the samples received institutional review board approval. All cryopreserved human bone marrow CD34+ cells used here were obtained from AlICells (Emeryville, Calif.) and were generally from different donors. The CD34+ cells were cultured to generate EPCs at day 7. Briefly, 1 million cells were cultured in 5% CO2, 5% O2 at 37° C. in H3000 Stemspan media (StemCell Technologies Vancouver, BC, Canada) supplemented with 2 mM L-glutamine, 40 μg/mL human low-density lipoproteins (StemCell Technologies), 10 ng/mL recombinant human (rh) interleukin IL-3 (R&D Systems, Minneapolis, Minn.), 100 ng/mL rh stem cell factor (R&D Systems), and 0.5 U/mL rh erythropoietin (Invitrogen, Grand Island, N.Y.). Cells were split and refed on day 4 with complete culture media described above and harvested on day 7 for evaluation of erythroid marker expression and assessment of γ-globin induction. Day 7 EPCs were then frozen in liquid nitrogen at 5 to 10 million cells/mL in 95% fetal bovine serum (FBS; Invitrogen) with 5% DMSO for subsequent use.
At the time of compound treatment, frozen day 7 EPCs prepared as described above were thawed, washed once and re-suspended in complete culture media as described above with the exception of an increase of rhEPO to 3 U/mL. Cells were counted and diluted to […] for plating into assay plates. Cells were then dispensed, at 30 μL per well with Multidrop™ Combi Reagent Dispenser (Thermo Scientific), into 384-well cell culture plates into which test compounds were pre-dispensed at 100 nL/well. Black Clear Bottom (Greiner Bio-One; 781090) and White (Greiner Bio-One; 781080) plates were used for ELISA and Cell Titer-Glo assays, respectively. The final cell density in the assays is 1,000 cells per well, with final compound concentrations between 33 nM (highest) and […] (lowest) for the 22-points serial dilution.
Fetal Hemoglobin (HbF) ELISA
Coating anti-HbF Ab (Bethyl Lab; cat. A80-136A) was diluted by 100-fold in the coating buffer (0.05 M carbonate-bicarbonate, pH 9.6), and then 20 μL/well was added to a 384-well MaxiSorp ELISA plate (Thermo Fisher; cat. 464718). After 1 hour incubation at room temperature, the plates were washed twice with ELISA washing buffer (50 mM Tris, 0.05% Tween 20, pH 8.0) with an EL406 plate washer (BioTek, Winooski, Vt.). Then, 40 μL/well of blocking buffer consisting of 50 mM Tris and 1% BSA (pH 8.0) was added to the plate and stored at 4° C. with cover sheet overnight, or until time of the assay. The coated ELISA plates were stable for up to 30 days at 4° C. On the day of assay, the plates were washed twice with ELISA washing buffer prior to addition of cell lysate.
After 5 days at 37° C. with 5% CO2 cell culture plates for ELISA assay were put into −80° C. freezer for a minimum of 2 hours. After thawing at room temperature, 30 μL of cell lysis buffer (Invitrogen; cat. FNN0011, supplemented with 1× protease inhibitor) was added to each well and the resulting cell lysate was mixed eight times with a Cybi-Well (Jena, Germany) pipettor. Following the mixing procedure, 20 μL/well of lysate was transferred to the coated ELISA plates described above followed by a 1 hour incubation at room temperature. The ELISA assay plates were washed three times with ELISA wash buffer. 20 μL per well of 1:75,000 to 100,000 diluted horseradish peroxidase (HRP) conjugate detection antiHbF Ab (Bethyl Labs; cat. A80-136P, diluted in 50 mM Tris [pH 8.0], 1% BSA, 0.05% Tween-20) was then added. […]

DNMT1 = DNMT1 (Homo sapiens, UniProt P26358); test: DNMT1 biochemical activity, breaklight assay and/or SPA assay
Protocol: DNMT1 breaklight in vitro assays were conducted in a total volume of 50 μl in a standard 384 well format, using black non-binding surface microplates (Corning 3575). […] Negative control wells used 5 μl of DNMT1 and 5 μl of oligonucleotide but 0 μM SAM. All reagents were made up in 1× assay buffer (20 mM Tris pH 6.8, 25 mM NaCl, 0.5 mM MgCl2, 0.01% Triton X100 and 1 mM DTT). The reaction was incubated at 26° C. for 45 min and then stopped with the addition of 40 μl detection reagent. Detection reagent, made up in 1× Gla assay buffer (20 mM Tris pH 8.0, 80 mM NaCl, 0.75 mM MgCl2, 0.01% Triton X100 and 1 mM DTT) has a final concentration of 100 μM SAH (Sigma #A9384) and 0.0008 units/μl Gla1 restriction endonuclease (Sibenzyme #E494). Following addition of the detection reagent the plate was incubated in the dark at room temperature for 5 hr. Fluorescence intensity was then measured on the PHERAstar FS (BMG Labtech) at Ex 485 nm and Em 520 nm, with a gain of 400 and an integration time of 100 ms.
Biochemical activity of DNMT1 analyzed using SPA technology. Plates (Griener 784075) were pre-stamped with 100 nL/well of compound (11-point, 3-fold serial dilution). […] Low control wells contained 5 μL of buffer instead of enzyme. Following a 40 minute incubation, the reaction was quenched upon the addition of 10 μL of stop mixture containing 1 mM SAM (Sigma A7007) and 2 mg/mL PEI beads (Perkin Elmer RPNQ0098). Plates were sealed, centrifuged for 1 min and then read on a Viewlux (Perkin Elmer) using the 613 nm emission filter/300 s read time following a 30 minute dark adapt. Assay conditions prior to quench consisted of 40 nM DNMT1 (601-1600, produced internally), 100 nM 3H-SAM (American Radiolabeled Chemicals ART 0288), 900 nM SAM (New England BioLabs B9003S) and 200 nM hemi methylated DNA oligonucleotide (synthesized at Integrated DNA Technologies, 5′-[…]-3′) in 50 mM HEPES (pH 8.0), 2 mM MgCl2, 1 mM DTT, 0.01% NP-40 and 0.01% BSA.
Comments • 1. […] Where a field is empty, the compound was not tested in that assay.

[2] = binned activity in either the breaklight or the SPA assay
[3] = binned activity in either the breaklight or the SPA assay, read-out: DNMT1 BioChemical (pIC50 category) (converted)

Sequence of DNMT1 (P26358 whole entry, looked up): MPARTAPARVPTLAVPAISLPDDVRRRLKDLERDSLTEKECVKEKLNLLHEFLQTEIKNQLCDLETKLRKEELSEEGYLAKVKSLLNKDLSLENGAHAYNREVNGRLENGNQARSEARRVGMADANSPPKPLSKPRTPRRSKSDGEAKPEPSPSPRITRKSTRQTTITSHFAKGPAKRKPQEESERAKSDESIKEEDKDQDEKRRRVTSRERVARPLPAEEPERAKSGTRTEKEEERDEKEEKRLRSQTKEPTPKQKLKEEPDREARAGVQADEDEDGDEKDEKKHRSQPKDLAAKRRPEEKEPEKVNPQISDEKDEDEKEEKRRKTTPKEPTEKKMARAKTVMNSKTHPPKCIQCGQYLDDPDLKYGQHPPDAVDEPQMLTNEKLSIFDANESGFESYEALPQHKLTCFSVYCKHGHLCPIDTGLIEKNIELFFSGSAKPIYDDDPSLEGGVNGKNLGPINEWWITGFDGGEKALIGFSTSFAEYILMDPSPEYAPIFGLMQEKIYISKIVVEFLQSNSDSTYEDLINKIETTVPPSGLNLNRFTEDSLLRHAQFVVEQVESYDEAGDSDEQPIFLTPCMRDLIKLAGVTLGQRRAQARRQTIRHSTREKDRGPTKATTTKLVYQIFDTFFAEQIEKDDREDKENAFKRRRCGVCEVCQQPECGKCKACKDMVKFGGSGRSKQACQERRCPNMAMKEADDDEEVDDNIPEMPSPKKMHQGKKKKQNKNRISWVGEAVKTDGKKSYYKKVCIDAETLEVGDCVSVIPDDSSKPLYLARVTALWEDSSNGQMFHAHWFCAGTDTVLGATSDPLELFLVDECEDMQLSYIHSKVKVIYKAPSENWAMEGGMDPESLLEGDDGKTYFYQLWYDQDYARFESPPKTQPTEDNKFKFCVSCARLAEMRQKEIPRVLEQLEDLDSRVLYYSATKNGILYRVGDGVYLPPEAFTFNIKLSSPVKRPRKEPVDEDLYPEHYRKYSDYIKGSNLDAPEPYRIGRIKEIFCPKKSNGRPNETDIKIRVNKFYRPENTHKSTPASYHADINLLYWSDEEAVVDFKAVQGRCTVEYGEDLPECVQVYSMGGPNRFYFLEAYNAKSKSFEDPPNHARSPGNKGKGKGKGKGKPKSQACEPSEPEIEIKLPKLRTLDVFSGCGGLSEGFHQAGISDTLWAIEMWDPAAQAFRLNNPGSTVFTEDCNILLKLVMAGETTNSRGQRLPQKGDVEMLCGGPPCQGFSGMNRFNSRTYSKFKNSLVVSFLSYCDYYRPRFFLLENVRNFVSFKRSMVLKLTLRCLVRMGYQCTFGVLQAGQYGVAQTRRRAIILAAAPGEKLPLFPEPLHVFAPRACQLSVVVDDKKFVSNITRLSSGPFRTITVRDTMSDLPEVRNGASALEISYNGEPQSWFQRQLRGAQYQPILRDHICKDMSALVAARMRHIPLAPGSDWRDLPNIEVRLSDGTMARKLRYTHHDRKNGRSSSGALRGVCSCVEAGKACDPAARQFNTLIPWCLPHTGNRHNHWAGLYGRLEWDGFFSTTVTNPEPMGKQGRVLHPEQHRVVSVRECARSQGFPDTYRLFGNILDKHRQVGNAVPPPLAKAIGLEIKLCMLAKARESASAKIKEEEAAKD

Compound	EC50 [1] [µM]	DNMT1 BioChemical (pIC50 category) (DNMT1; [2])	IC50 (DNMT1; [3]) [µM]	IC50 (DNMT1; breaklight assay and/or SPA assay, repeated experimental runs, read-out: average pIC50 against DNMT1 (converted))
CCc1c(C#N)c(SC(C(N)=O)c2ccccc2)nc(N2CCC(NCc3ccccc3)CC2)c1C#N (stereo not drawn) [Example 455, 2-(6-(4-(benzylamino)piperidin-1-yl)-3,5-dicyano-4-ethylpyridin-2-ylthio)-2-phenylacetamide]	< 0.316	D (Category D: ≥6.5)		
CCc1c(C#N)c(SC(C(N)=O)c2ccccc2)nc(N2CCC[C@H](NC)C2)c1C#N (stereo partly drawn) [Example 607, 2-((3,5-dicyano-4-ethyl-6-((S)-3-(methylamino)piperidin-1-yl)pyridin-2-yl)thio)-2-phenylacetamide]	< 0.316	D (Category D: ≥6.5)		
CCc1c(C#N)c(S[C@H](C(N)=O)c2ccccc2)nc(N2CCC(C)(N)CC2)c1C#N (single isomer, unassigned) [Example 608, 2-((6-(4-amino-4-methylpiperidin-1-yl)-3,5-dicyano-4-ethylpyridin-2-yl)thio)-2-phenylacetamide]	< 0.316	D (Category D: ≥6.5)		
CCc1c(C#N)c(S[C@@H](C(N)=O)c2ccccc2)nc(N2CC[C@](F)(CN)C2)c1C#N [Example 638, (R)-2-((6-((S)-3-(aminomethyl)-3-fluoropyrrolidin-1-yl)-3,5-dicyano-4-ethylpyridin-2-yl)thio)-2-phenylacetamide]	0.316 to 1	D (Category D: ≥6.5)		
CCc1c(C#N)c(SCc2ccc(NS(C)(=O)=O)nc2)nc(N2CCCN(C)CC2)c1C#N [Example 335, N-(5-(((3,5-dicyano-4-ethyl-6-(4-methyl-1,4-diazepan-1-yl)pyridin-2-yl)thio)methyl)pyridin-2-yl)methanesulfonamide]	> 31.6		0.316 to 1	
CCc1c(C#N)c(SC(C(N)=O)c2ccccc2)nc(N2CCC(N3CC[C@H](F)C3)CC2)c1C#N (stereo partly drawn) [Example 457, 2-((3,5-dicyano-4-ethyl-6-(4-((S)-3-fluoropyrrolidin-1-yl)piperidin-1-yl)pyridin-2-yl)thio)-2-phenylacetamide]	< 0.316	D (Category D: ≥6.5)		
N#Cc1c(SC(C(N)=O)c2ccccc2)nc(N2CC(NC(=O)[C@@H](N)CO)C2)c(C#N)c1C1CC1 (stereo partly drawn) [Example 611, (2S)-2-amino-N-(1-(6-((2-amino-2-oxo-1-phenylethyl)thio)-3,5-dicyano-4-cyclopropylpyridin-2-yl)azetidin-3-yl)-3-hydroxypropanamide]	1 to 31.6	D (Category D: ≥6.5)		
CCc1c(C#N)c(SC(C(N)=O)c2ccccc2)nc(N(C)CCOC(=O)[C@@H](N)C(C)C)c1C#N (stereo partly drawn) [Example 275]	0.316 to 1		0.316 to 1	
CCc1c(C#N)c(SC(C(N)=O)c2ccccc2)nc(N(C)CCN2CC[C@@H](N(C)C)C2)c1C#N (stereo partly drawn) [Example 516, 2-((3,5-dicyano-6-((2-((R)-3-(dimethylamino)pyrrolidin-1-yl)ethyl)(methyl)amino)-4-ethylpyridin-2-yl)thio)-2-phenylacetamide]	< 0.316	D (Category D: ≥6.5)		
CCc1c(C#N)c(SC(C(N)=O)c2ccccc2)nc(N(C)CC(=O)N2C[C@H](O)C[C@H](O)C2)c1C#N (stereo partly drawn) [Example 659, 2-((3,5-dicyano-6-((2-((3R,5S)-3,5-dihydroxypiperidin-1-yl)-2-oxoethyl)(methyl)amino)-4-ethylpyridin-2-yl)thio)-2-phenylacetamide]	< 0.316	D (Category D: ≥6.5)		
CCc1c(C#N)c(SC(CC)c2ccc(CNC(C)=O)cc2)nc(N2CCC(N(C)C)CC2)c1C#N (stereo not drawn) [Example 332, N-(4-(1-(3,5-Dicyano-6-(4-(dimethylamino)piperidin-1-yl)-4-ethylpyridin-2-ylthio)propyl)benzyl)acetamide, Trifluoroacetic Acid Salt]	0.316 to 1		1 to 31.6	
CCc1c(C#N)c(SC(C(N)=O)c2ccccc2)nc(N2CCC(NC)C2)c1C#N (stereo not drawn) [Example 521, 2-((3,5-dicyano-4-ethyl-6-(3-(methylamino)pyrrolidin-1-yl)pyridin-2-yl)thio)-2-phenylacetamide]	< 0.316	D (Category D: ≥6.5)		
CCc1c(C#N)c(SC(C(N)=O)c2ccc(F)c(F)c2)nc(N2CCC(N(C)C)CC2)c1C#N (stereo not drawn) [Example 216, 2-((3,5-Dicyano-6-(4-(dimethylamino)piperidin-1-yl)-4-ethylpyridin-2-yl)thio)-2-(3,4-difluorophenyl)acetamide]	< 0.316		1 to 31.6	≥ 1 µM and 1.58 µM
CCc1c(C#N)c(SC(C(N)=O)c2ccc(CC(N)=O)cc2)nc(N(C)C)c1C#N (stereo not drawn) [Example 401, 2-(4-(2-Amino-2-oxoethyl)phenyl)-2-(3,5-dicyano-6-(dimethylamino)-4-ethylpyridin-2-ylthio)acetamide]	1 to 31.6	D (Category D: ≥6.5)		
CCc1c(C#N)c(SC(C(N)=O)c2ccc(F)cc2)nc(N2CCC(NCC(C)(C)C)CC2)c1C#N (stereo not drawn) [Example 408, 2-((3,5-Dicyano-4-ethyl-6-(4-(neopentylamino)piperidin-1-yl)pyridin-2-yl)thio)-2-(4-fluorophenyl)acetamide]	< 0.316	D (Category D: ≥6.5)		
CCc1c(C#N)c(SCc2ccc(CNC(=O)Nc3ccccc3)cc2)nc(N2CCCN(C)CC2)c1C#N [Example 100, 1-(4-(((3,5-Dicyano-4-ethyl-6-(4-methyl-1,4-diazepan-1-yl)pyridin-2-yl)thio)methyl)benzyl)-3-phenylurea]	> 31.6		0.316 to 1	
